Reference: patent US20230142274A1 (SIMCERE PHARMACEUTICAL CO., LTD., priority 2020, published 2023)
Where two headings read alike, the source gives them in different places.

Experiments:
[1] = Metabolic stability in liver microsomes (CD-1 mouse); format: in vitro ADME; conditions: CD-1 mouse liver microsomes 0.5 mg/mL, compound 1 μM, NADPH 1 mM, 37° C.; for half-life at 1 μM: pH 7.4
Experimental: (§1) 1. Source of liver microsomes: human liver microsomes (Corning 452117), CD-1 mouse liver microsomes (XENOTECH M1000)
(§2) 1. Formulation of 100 mM phosphate buffer solution (PBS): 7.098 g of Na2HPO4 was weighed and ultrasonically dissolved in 500 mL of pure water to form Solution A. 3.400 g of KH2PO4 was weighed and ultrasonically dissolved in 250 mL of pure water to form Solution B. Solution A was placed in a stirrer and Solution B was slowly added until the pH value reached 7.4, thus formulating 100 mM PBS buffer solution.
(§3) The reaction system was formulated according to Table 3 below.
(§4) 3. The reaction system was placed in a water bath at 37° C. and pre-incubated for 10 minutes. 40 μL of 10 mM NADPH solution (NADPH was dissolved in 100 mM phosphate buffer solution) was added into the reaction system, and the final concentration of NADPH was 1 mM. 40 μL of Phosphate buffer solution was used instead of the NADPH solution as a negative control. The negative control was used to rule out the influence caused by the chemical stability of the compounds per se.
(§5) 4. The reaction system was added with 4 μL of 100 μM the compound of the present disclosure and Verapamil (the positive control compound) (DMSO as the vehicle), so that the reaction was initiated. The final concentration of the compound was 1 μM.
(§6) 5. At 0.5, 15, 30, 45 and 60 minutes, after being well mixed in a vortex oscillator, 50 μL of the incubated samples were taken out respectively, and the reaction was terminated with ice acetonitrile (4-fold) containing an internal standard. The samples were centrifuged at 3220 g for 45 minutes. After the centrifugation, 90 μL of the supernatants were transferred to a sample plate and mixed well with 90 μL of ultrapure water for LC-MS/MS analysis.
(§7) All data were calculated by Microsoft Excel software. Peak areas were determined from the extracted ion chromatograms. The in-vitro half-life (t1/2) of the parent drug was determined by the linear fitting of the natural logarithm of the elimination percentage of the parent drug versus time.
(§8) The in-vitro half-life (t1/2) was calculated from the slope: […]

[2] = Metabolic stability in liver microsomes (human); format: in vitro ADME; conditions: Human being liver microsomes 0.5 mg/mL, compound 1 μM, NADPH 1 mM, 37° C.; for half-life at 1 μM: pH 7.4
Experimental: as §1, §2, §3, §4, §5, §6, §7, §8

[3] = Pharmacokinetic experiment in mouse; format: in vivo; conditions: female CB17-SCID mice; for half-life: mouse, plasma, read-out: Drug Elimination Half-life (converted)
Description: CB17-SCID mice were purchased from Beijing Vital River Laboratory Animal Technology Co., Ltd.
DMSO, HP-β-CD (hydroxypropyl-β-cyclodextrin), PEG400 (polyethylene glycol 400), and Vitamin E TPGS (D-α-tocopherol polyethylene glycol 1000 succinate) were purchased from Sigma.
Six female CB17-SCID mice (20 g to 30 g, aged 4 to 6 weeks) were divided randomly into two groups, with 3 mice in each group. In Group 1, the compound in a vehicle of an aqueous solution containing 5% dimethyl sulfoxide and 95% hydroxypropyl-β-cyclodextrin (10%, w/v) was administered by intravenous injection via tail vein. In Group 2, a corresponding dose of the compound in a vehicle of an aqueous solution containing 30% polyethylene glycol 400 and 70% D-α-tocopherol polyethylene glycol 1000 succinate (10%, w/v) was orally administered. The animals were fed normally with food and water before experiment. The mice in each group underwent intravenous blood collection before administration and at 0.083 h (intravenous injection group only), 0.25 h, 0.5 h, 1 h, 2 h, 4 h, 6 h, 8 h, and 24 h after administration. The collected whole blood samples were placed in K2EDTA anticoagulation tubes and centrifuged for 5 min (4000 rpm, 4° C.) to collect the plasma for testing.
10 μL of the mouse plasma sample was taken, and 150 μL of acetonitrile solvent (containing the internal standard compound) was added to precipitate protein. After the resultant was vortexed for 0.5 min and centrifuged (4700 rpm, 4° C.) for 15 min, the supernatant was subjected to 2-fold dilution with water containing 0.05% (v/v) FA and was then subjected to quantitative measurement in LC-MS/MS system (AB Sciex Triple Quad 6500+). A calibration standard curve was prepared in CB17-SCID mouse plasma along with quality control samples to determine the plasma concentration. As for a 10× diluted sample, 2 μL of sample was taken and 18 μL of blank plasma was added. After being vortexed for 0.5 min, the mixture was added with 300 μL of acetonitrile solvent (containing the internal standard compound) so as to precipitate protein. The rest of the processing steps were the same as those for the undiluted samples.

Daudi cells = assay: Inhibition of human Daudi lymphoma cell proliferation (Cell-Titer Glo); format: cell-based; conditions: 3 days incubation, read-out: Anti-Proliferative Activity Against Daudi cells IC50
In short: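 Daudi cells in RPMI 1640 with 10% FBS were seeded and grown 24 h, then exposed for 3 days (37 °C, 5% CO2) to 10-point 3-fold serial dilutions at 0.25% final DMSO. Viability was read by CellTiter-Glo ATP luminescence, and IC50 was fitted from % inhibition against top/bottom controls.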

Structure (SMILES) | half-life at 1 μM [1] | half-life at 1 μM [2] | IC50 (Daudi cells; Homo sapiens, 72 h) | also measured
COc1ccc(-c2ccc(-c3cnc([C@H]4CC[C@H](NC(=O)OC(C)C)CC4)s3)c([S@@](=N)(=O)C3CC3)c2)cn1 (stereo in doubt) [Example 94] |  |  |  | t1/2 [1]: 3.4 h; t1/2 [2]: 3.85 h; Drug Elimination Half-life ([3]; oral dose 25 mg/kg): 3.5 h; Drug Exposure ([3]; oral dose 25 mg/kg): 125.779 µg·h/mL; Max. Drug Conc. ([3]; oral dose 25 mg/kg): 19257 ng/mL; Peak Time of Drug Conc. ([3]; oral dose 25 mg/kg): 1.3 h; IC50 (Daudi cells): 20 nM
CC(C)OC(=O)Nc1ccc(-c2cnc([C@H]3CC[C@H](NC(=O)OC(C)C)CC3)s2)c(P(C)(C)=O)c1 [Example 1, isopropyl trans-N-[3-dimethylphosphoryl-4-[2-[4-(isopropoxycarbonylamino)cyclohexyl]thiazol-5-yl]phenyl]carbamate] | > 8.33 h | > 8.33 h | 1620 nM | Drug Exposure ([3]; oral dose 80 mg/kg): 211.819 µg·h/mL; Max. Drug Conc. ([3]; oral dose 80 mg/kg): 14640 ng/mL; Peak Time of Drug Conc. ([3]; oral dose 80 mg/kg): 2.3 h; half-life ([3]; oral dose 80 mg/kg): 3.7 h
CC(C)OC(=O)Nc1ccc(-c2cnc([C@H]3CC[C@H](NC(=O)OC(C)C)CC3)s2)c(S(=O)(=O)C(C)C)c1 [Example 2, isopropyl trans-N-[4-[2-[4-(isopropoxycarbonylamino)cyclohexyl]thiazol-5-yl]-3-isopropylsulfonyl-phenyl]carbamate] | 4.27 h | 2.42 h | 390 nM | 
CC(C)OC(=O)Nc1ccc(-c2cnc(C3CCC(NC(=O)OC(C)C)CC3)s2)c(S(=N)(=O)C(C)C)c1 (stereo not drawn) [Example 3, isopropyl trans-N-[4-[2-[4-(isopropoxycarbonylamino)cyclohexyl]thiazol-5-yl]-3-(isopropylsulfonimidoyl)phenyl]carbamate] | > 8.33 h | 7.95 h | 1080 nM | Drug Exposure ([3]; oral dose 80 mg/kg): 271.377 µg·h/mL; Max. Drug Conc. ([3]; oral dose 80 mg/kg): 15438 ng/mL; Peak Time of Drug Conc. ([3]; oral dose 80 mg/kg): 2.8 h; half-life ([3]; oral dose 80 mg/kg): 32 h
CC(C)OC(=O)Nc1ccc(-c2cnc(C3CCC(NC(=O)OC(C)C)CC3)s2)c([S+]([O-])C(C)C)c1 (stereo not drawn) [Example 32, isopropyl trans-N-[4-[2-[4-(isopropoxycarbonylamino)cyclohexyl]thiazol-5-yl]-3-isopropylsulfinyl-phenyl]carbamate] | 2.7 h | 4.18 h | 420 nM | 
CC(C)OC(=O)Nc1ccc(-c2cnc([C@H]3CC[C@H](NC(=O)OC(C)C)CC3)s2)c(S(=O)(=O)C2CC2)c1 [Example 33, isopropyl trans-N-[3-cyclopropylsulfonyl-4-[2-[4-(isopropoxycarbonylamino)cyclohexyl]thiazol-5-yl]phenyl]carbamate] | 4.13 h | > 8.33 h | 100 nM | 
Cc1cc(Nc2ccc(-c3cnc([C@H]4CC[C@H](NC(=O)OC(C)C)CC4)s3)c(P3(=O)CCCC3)c2)n[nH]1 [Example 47, isopropyl trans-N-[4-[5-[4-[(5-methyl-1H-pyrazol-3-yl)amino]-2-(1-oxidophospholan-1-yl)phenyl]thiazol-2-yl]cyclohexyl]carbamate] | 7.28 h | 5.05 h | 30 nM | 
Cc1cc(Nc2ccc(-c3cnc([C@H]4CC[C@H](NC(=O)OC(C)C)CC4)s3)c(S(=O)(=O)C3CC3)c2)n[nH]1 [Example 48, isopropyl trans-(4-(5-(2-(cyclopropylsulfonyl)-4-((5-methyl-1H-pyrazol-3-yl)amino)phenyl)thiazol-2-yl)cyclohexyl)carbamate] | 7.2 h | > 8.33 h | 6 nM | Drug Exposure ([3]; oral dose 30 mg/kg): 203.497 µg·h/mL; Max. Drug Conc. ([3]; oral dose 30 mg/kg): 17657 ng/mL; Peak Time of Drug Conc. ([3]; oral dose 30 mg/kg): 2 h; half-life ([3]; oral dose 30 mg/kg): 7.6 h
Cc1cc(Nc2ccc(-c3cnc([C@H]4CC[C@H](NC(=O)OC(C)C)CC4)s3)c(S(=O)(=O)C3CC3)c2)nn1C [Example 49, isopropyl trans-(4-(5-(2-(cyclopropylsulfonyl)-4-((1,5-dimethyl-1H-pyrazol-3-yl)amino)phenyl)thiazol-2-yl)cyclohexyl)carbamate] | 2.08 h | 0.933 h | 6 nM | 
CC(C)OC(=O)N[C@H]1CC[C@H](c2ncc(-c3ccc(Nc4n[nH]c5ccccc45)cc3S(=O)(=O)C3CC3)s2)CC1 [Example 56, isopropyl trans-(4-(5-(4-((1H-indazol-3-yl)amino)-2-(cyclopropylsulfonyl)phenyl)thiazol-2-yl)cyclohexyl)carbamate] | 1.82 h | 2.98 h | 7 nM | 
CC(C)OC(=O)N[C@H]1CC[C@H](c2ncc(-c3ccc(Nc4cc5ccccn5n4)cc3S(=O)(=O)C3CC3)s2)CC1 [Example 57, isopropyl trans-(4-(5-(2-(cyclopropylsulfonyl)-4-(pyrazolo[1,5-a]pyridin-2-ylamino)phenyl)thiazol-2-yl)cyclohexyl)carbamate] | 2.1 h | 0.933 h | 7 nM | 
CC(C)OC(=O)N[C@H]1CC[C@H](c2ncc(-c3ccc(NC(=O)NCc4ccccc4)cc3S(=N)(=O)C3CC3)s2)CC1 (stereo partly drawn) [Example 65, isopropyl trans-(4-(5-(4-(3-benzylureido)-2-(cyclopropanesulfonimidoyl)phenyl)thiazol-2-yl)cyclohexyl)carbamate] | 1.33 h | 1.85 h | 37 nM | 
Cc1cc(Nc2ccc(-c3cnc([C@H]4CC[C@H](NC(=O)OC(C)C)CC4)s3)c(S(=N)(=O)C3CC3)c2)n(C)n1 (stereo partly drawn) [Example 98, isopropyl trans-(4-(5-(2-(cyclopropanesulfonimidoyl)-4-((1,3-dimethyl-1H-pyrazol-5-yl)amino)phenyl)thiazol-2-yl)cyclohexyl)carbamate] | > 8.33 h | 2.28 h | 32 nM | 
Cc1cc(Nc2ccc(-c3cnc([C@H]4CC[C@H](NC(=O)OC(C)C)CC4)s3)c(P3(=O)CCC3)c2)n[nH]1 [Example 103, isopropyl trans-(4-(5-(4-((5-methyl-1H-pyrazol-3-yl)amino)-2-(1-oxophosphetan-1-yl)phenyl)thiazol-2-yl)cyclohexyl)carbamate] | > 8.33 h | > 8.33 h | 47 nM | 
